In general, Emax refers to the size of the effect at its maximum, as opposed to the concentration needed. One may read the EC50 as the midpoint of the concentration-response curve. A high value points to weaker potency.

Data on 3 molecules can be found in publication PMC9916806, “Tachykinin Receptor-Selectivity of the Potential Glioblastoma-Targeted Therapy, DOTA-[Thi^8,Met(O2)^11]-Substance P” (International Journal of Molecular Sciences, 2023).

SMILES strings stand for the structures.

On the set-up of data set [1]: method as in PMID 31480582. Conditions: ref [19]; cited from earlier work.
The target in data set [2] is T1, NK1R (Homo sapiens, UniProt P25103).
T1 construct: host or cells: HEK293-T
T1 sequence (P25103 whole entry): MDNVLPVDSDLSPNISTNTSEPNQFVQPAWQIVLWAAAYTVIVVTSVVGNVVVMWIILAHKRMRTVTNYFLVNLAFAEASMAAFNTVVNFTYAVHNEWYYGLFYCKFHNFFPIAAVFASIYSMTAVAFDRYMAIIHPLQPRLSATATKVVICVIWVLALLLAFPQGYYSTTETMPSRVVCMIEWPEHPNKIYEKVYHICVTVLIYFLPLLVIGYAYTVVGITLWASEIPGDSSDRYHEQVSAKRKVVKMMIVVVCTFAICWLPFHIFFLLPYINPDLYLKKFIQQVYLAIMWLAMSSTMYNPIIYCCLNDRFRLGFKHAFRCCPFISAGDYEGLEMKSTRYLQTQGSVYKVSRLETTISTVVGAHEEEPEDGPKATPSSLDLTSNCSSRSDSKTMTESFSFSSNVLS
Nature of the data set: IP accumulation assay, NK1R activation (HEK293-T cells). The data set is classed as cell-based. The settings on record: HEK293-T cells transfected with NK1R, 1 h at 37 °C, mean ± SEM (n = 3). From the text:
(§1) pcDNA mammalian expression vectors encoding human NK3R (GenBank accession number: AY462098), NK2R (GenBank accession number: AY322545), NK1R (GenBank accession number: AY462099) and MRGPRX2 (GenBank accession number: NM_054030) were obtained from the Bloomsburg University cDNA Resource Center (www.cdna.org [accessed on 18 October 2018]). The NK1R, NK2R and NK3R vectors included an N-terminal 3xHA epitope tag. The empty vector, pcDNA3.1, was obtained from Thermo Fisher Scientific (Waltham, MA, USA). […] Talnetant was kindly supplied by Dr Mike Trower (NeRRe Therapeutics, Stevenage, UK).
(§2) Modified human embryonic kidney cells (HEK293-T; American Tissue and Cell Culture Collection), which provide a ‘blank’ background (with little/no endogenous tachykinin receptor nor MRGPRX2 expression) and stably express large T-antigen for optimal expression of exogenous proteins, were utilised. […]
(§3) The tachykinin receptors elicit intracellular signalling responses primarily through coupling to, and the activation of, Gαq/11 G proteins. […] These can be isolated using ion exchange chromatography and their radioactivity measured, with the amount of radiolabelled IP generated (i.e., the level of radioactivity measured) being proportional to the signalling activity of the receptor [48]. […]

The conditions of data set [3]: ref [29]; cited from earlier work. From the text:
In glioblastoma multiforme NK1Rs are believed to be highly expressed on the tumour cells and also within the tumour neovasculature, conferring the ability to concurrently target vascular and neoplastic structures. […] However, its therapeutic effectiveness is fairly constra ...

On the set-up of data set [4]: method as in PMID 31480582. Conditions: ref [19]; cited from earlier work. The source holds these as a separate data set.
The subject of data set [5] is NK1R. Conditions: native tachykinins; ref [11],[13]; cited from earlier work.
Another data set has as its system MRGPRX2. Conditions: ref [14]; cited from earlier work. From the text:
Glioblastoma multiforme is one of the most common and most aggressive forms of central nervous system tumour and, despite therapeutic advances, it remains largely incurable. […] SP is a member of the tachykinin family of neuropeptides, of which the other classical members are neurokinin-A (NKA) and ...

Data set [6] concerns the target T2, NK3R (Homo sapiens, UniProt P29371).
T2 construct: host or cells: HEK293-T
T2 sequence (P29371 1-465): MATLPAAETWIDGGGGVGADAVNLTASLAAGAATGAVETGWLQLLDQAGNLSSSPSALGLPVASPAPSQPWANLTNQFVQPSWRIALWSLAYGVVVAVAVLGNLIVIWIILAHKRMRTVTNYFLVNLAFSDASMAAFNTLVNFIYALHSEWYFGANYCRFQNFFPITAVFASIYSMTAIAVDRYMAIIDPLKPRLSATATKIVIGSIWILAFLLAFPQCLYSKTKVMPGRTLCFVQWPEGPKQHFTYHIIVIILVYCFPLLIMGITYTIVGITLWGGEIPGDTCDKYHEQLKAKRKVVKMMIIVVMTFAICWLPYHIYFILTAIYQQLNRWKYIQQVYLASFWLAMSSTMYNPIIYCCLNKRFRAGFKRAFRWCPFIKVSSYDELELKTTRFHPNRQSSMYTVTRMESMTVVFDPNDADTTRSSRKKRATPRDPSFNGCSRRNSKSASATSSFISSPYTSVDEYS
Put plainly: IP accumulation assay, NK3R activation (HEK293-T cells). Conditions: 1 µM SP; Supplemental Figure S3, % of cognate native ligand (NKB) response; single experiment (n=1); also ref [11]. It is filed as cell-based.
Description: as §1, §2, §3

Data set [7] has as its system all three tachykinin receptors (NK1R, NK2R, NK3R). The settings on record: albeit with differing potencies; ref [11],[13]; cited from earlier work.
The target of data set [8] is T2, NK3R. Put plainly: NK3R antagonism, IP accumulation assay. It is filed as cell-based. Conditions: 1 µM compound, 30 min pre-incubation at 37 °C, then 30 nM NKB 1 h; Figure 4; n = 4 (talnetant: two experiments).
Description: as §1
Modified human embryonic kidney cells (HEK293-T; American Tissue and Cell Culture Collection), which provide a ‘blank’ background (with little/no endogenous tachykinin receptor nor MRGPRX2 expression) and stably express large T-antigen for optimal expression of exogenous proteins, were utilised. Cells were cultured in a humidified atmosphere at 37 °C with 5% CO2 in Dulbecco’s Modified Eagle Medium containing GlutaMAX™ (DMEM) (Life Technologies, Carlsbad, CA, USA) supplemented with 10% foetal calf serum (FCS) (Life Technologies, Carlsbad, CA, USA). Cells were passaged regularly to maintain them at less than 80% confluence. […]

Data set [9] concerns NK3R. Set-up: method as in PMID 9190866. Conditions: ref [49]; cited from earlier work. The protocol:
For single-concentration analyses, cells were incubated with 1 µM [NK1R, NK2R, NK3R and empty vector) or 10 µM [MRGPRX2 and empty vector]

Turning to `CC(C)C[C@H](NC(=O)CNC(=O)[C@H](Cc1cccs1)NC(=O)[C@H](Cc1ccccc1)NC(=O)[C@H](CCC(N)=O)NC(=O)[C@H](CCC(N)=O)NC(=O)[C@@H]1CCCN1C(=O)[C@H](CCCCN)NC(=O)[C@@H]1CCCN1C(=O)[C@H](CCCNC(=N)N)NC(=O)CN1CCN(CC(=O)O)CCN(CC(=O)O)CCN(CC(=O)O)CC1)C(=O)N[C@@H](CCS(C)(=O)=O)C(N)=O` [DOTA-[Thi^8,Met(O2)^11]SP, 1,4,7,10-tetraazacyclododecane-1,4,7,10-tetraacetic acid-[Thi^8,Met(O2)^11]-SP], in data set [1], the “in vivo half-life compared to native SP” value is “increased lipophilicity and in vivo half-life”. Further, on NK1R [2] (HEK-293T, Table 2, % of the maximal response elicited by SP (Figure 3)), the Emax is 89 ± 1%. In addition, the EC50 on NK1R [2] (Table 2, comparison of SP with DOTA-[Thi8,Met(O2)11]SP) was 3.31 nM. Further, in data set [3], the metabolic stability result is listed as “metabolically stable”. The “lipophilicity compared to native SP” value in data set [4] is “increased lipophilicity”.

On to `CSCC[C@H](NC(=O)[C@H](CC(C)C)NC(=O)CNC(=O)[C@H](Cc1ccccc1)NC(=O)[C@H](Cc1ccccc1)NC(=O)[C@H](CCC(N)=O)NC(=O)[C@H](CCC(N)=O)NC(=O)[C@@H]1CCCN1C(=O)[C@H](CCCCN)NC(=O)[C@@H]1CCCN1C(=O)[C@@H](N)CCCNC(=N)N)C(N)=O` [SP, Substance P], for which the “affinity for NK1R” value in the data set with NK1R [5] is “highest affinity for NK1R”. In addition, the “agonism at MRGPRX2” value with MRGPRX2 was “low potency agonist”. Moreover, on NK3R [6], the “NK3R response to SP” value was “able to elicit a response”. Besides, in data set [7], the “agonism at all three tachykinin receptors” value is “full agonists”.

As to `CC[C@H](NC(=O)c1c(O)c(-c2ccccc2)nc2ccccc12)c1ccccc1` [talnetant, (S)-N-(1-phenylpropyl)-3-hydroxy-2-phenylquinoline-4-carboxamide], the “inhibition of NK3R activation” value on NK3R [8] is reported as “NKB-induced NK3R activation was completely abolished”. The NK3R antagonism entry with NK3R [9] is listed as “non-peptide antagonist of the NK3R”.
